In patent US8217071B2, “Use of inhibitors of the degradation of p27, in particular Argyrin and derivatives thereof, for the treatment of proliferative diseases” (Helmholtz Zentrum für Infektionsforschung GmbH, priority 2007, dated 2012):
Numbered stars: 1 amine (or outer) side, 2 acyl side, 3 side chain; on linkers, the order of the positions; unused ones are H or OH. Square brackets hold non-standard residues; d marks the D form. Peptide text beside a SMILES is read from it. dAla(ψthiazole) = C[C@@H](N[*:1])c1nc(C(=O)[*:2])cs1; Trp(4-OMe) = COc1cccc2[nH]cc(C[C@H](N)C(=O)O)c12; Dha = C=C(N)C(=O)O; Sar = CNCC(=O)O

Legend:
[1] = test system: CD31 positive endothelial cells in tumour tissues (SW480 or HCT116); test: Microvessel density (CD31) in tumour tissue after single injection; format: in vivo, mouse
Method: This phenotype is often observed with drugs which interfere with blood vessel formation or compounds which directly damage existing tumour vessels. […] This reduction in tumour vasculature was paralleled by an induction of p27^kip1 expression in the CD31 positive endothelial cells. (FIG. 7A). To understand this phenotype in more detail the inventors analyzed primary tumour material by electronic microscopy. As early as 90 minutes after injection the inventors observed swelling of endothelial cell which was followed by a loss of basal membrane attachment and cell-cell contacts (FIG. 4D) in the tumour vasculature. As a result of the apparent loss of cell and basal membrane attachment after Argyrin A treatment many of the examined tumour blood vessels were occluded with endothelial cells or erythrocytes. The destruction of the tumour core which the inventors observed after Argyrin A treatment might therefore be a result of thrombotic occlusion of the affected blood vessels. In contrast the bortezomib induced reduction in CD31 positive cells correlated with the appearance of necrotic endothelial cells (FIG. 4D).
Treatment with Argyrin A or bortezomib was started when these tumours reached a volume of 200 mm3. […] (n=8 Argyrin A, n=8 Bortezomib, n=6 PBS/EtOH) b) The pictures show the macroscopic appearance of a xenotransplant tumour after 10 days of treatment with Argyrin A. Note the large necrotic centre of the explanted tumour. c) After a single injection of Argyrin A (0.15 mg/kg bodyweight) or bortezomib (1.0 mg/kg bodyweight) tumours were explanted at the indicated time points and blood vessels in the tumour tissue were co-stained for CD31 and p27. […] Note the swelling of the endothelial cell (“E”) and the occlusion of the lumen (“L”) by erythrocytes after 90 minutes of Argyrin A treatment. The arrow marks the detachment of endothelial cells after 48 h of Argyrin A treatment. […] Tube length (f) and blood vessel like […] structures were determined using photographs of HUVEC cultures. The micrographs show representative examples of HUVEC cultures under the indicated conditions.
Immunohistochemical staining of mouse tumour tissue, western Blotting and immunofluorescence experiments were done as previously described (Timmerbeul, I. et al. Testing the importance of p27 degradation by the SCFskp2 pathway in murine models of lung and colon cancer. Proc Natl Acad Sci USA 103, 14009-14 (2006). Kossatz, U. et al. C-terminal phosphorylation controls the stability and function of p27^kip1. Embo J 25, 5159-70 (2006).). […]

[2] = test system: mouse embryonic fibroblasts from p27^kip1 wildtype mice; test: Apoptosis (sub-G1 fraction) by flow cytometry in p27 wildtype MEF; format: cell-based; conditions: for apoptosis in p27 wildtype MEF: sub G1 fraction
Text: Next the inventors tested whether the stabilization of p27 was indeed required for the apoptosis inducing function of Argyrin A or was merely a consequence of proteasome inhibition. For this the inventors treated immortalized mouse embryonic fibroblasts from p27^kip1 wildtype or knockout mice with Argyrin A or the proteasome inhibitor bortezomib and assayed cell cycle distribution and apoptosis by flow cytometry. […] These differences in sensitivity in response to Argyrin A treatment were not due to differences in the accumulation of other proteasomal substrates in p27 wildtype and knockout cells as p53 and p21 levels increased in both cell lines in response to Argyrin A (FIG. 6B). To extend this observation to human cancer cells the inventors reduced the levels of p27^kip1 in HeLa cells using p27^kip1 specific siRNA.
The results shown are the average numbers for six independent experiments. b+d) Wildtype (b) and p27 knockout (d) MEF were treated with Argyrin A or transfected with siRNAs specific for the β1, β2 or β5 subunit of the proteasome for 24 hours. The graphs show the remaining catalytic activity of the different proteasome subunits after Argyrin A or siRNA treatment compared to an untreated control (n=3). The western blots show the expression of the β1, β2 or β5 subunit of the proteasome in proliferating cells and after treatment with siRNAs for a representative experiment. c+e) Flow cytometric measurements of the number of apoptotic cells (sub-G1 fraction) after Argyrin A or siRNA treatment in wildtype (c) or p27 knockout (E) MEF. f) HeLa cells were treated with Argyrin A or siRNA against p27 or Argyrin A and siRNA against p27 for either 24 or 48 hours.
MTT assays were done as previously described (Sasse, F. et al. Argyrins, immunosuppressive cyclic peptides from myxobacteria. I. Production, isolation, physico-chemical and biological properties. J Antibiot (Tokyo) 55, 543-51 (2002)). TUNEL staining of tissue sections was performed on 10 micrometer sections which were deparafinised and treated as recommended by the manufacturer. (In Situ Cell Death Detection Kit, Fluorescein; ROCHE, Cat #11 684 795 910). Flow cytometric analysis of cultured cells was done using a Becton Dickinson fluorescence cytometer as previously described (Malek, N. P. et al. A mouse knock-in model exposes sequential proteolytic pathways that regulate p27^Kip1 in G1 and S phase. Nature 413, 323-7 (2001)). Analysis of the distribution of cells in the cell cycle and the sub-G1 fraction was done using Cell Quest software. A histone-associated-DNA-fragments ELISA was used to determine the number of apoptotic cells according to manufacturers instructions (Roche #11 774425001).

Row | Structure (SMILES) | CD31 positive cells remaining ([1]; 72 hours after injection) | number of CD31 positive endothelial cells ([1]; single injection) | start of reduction of CD31 positive endothelial cells after injection ([1]; single injection) [min] | apoptosis, share of all cells, wildtype fibroblasts ([2]; after 24 hours) [%] | apoptosis in p27 wildtype MEF [2] | apoptosis in p27 wildtype MEF ([2]; listed as Bortezomib)
1 | C=C1NC(=O)[C@@H](C)NC(=O)CNC(=O)[C@H](Cc2c[nH]c3cccc(OC)c23)NC(=O)[C@H](Cc2c[nH]c3ccccc23)NC(=O)c2csc(n2)[C@@H](C)NC(=O)CN(C)C1=O [Argyrin A] (cyclo(W[Trp(4-OMe)]G[dA][Dha][Sar][dAla(ψthiazole)])) | about 10% | significant reduction | ≥ 90 | 38 | induced apoptosis | –
2 | CC(C)C[C@H](NC(=O)[C@H](Cc1ccccc1)NC(=O)c1cnccn1)B(O)O [bortezomib, reference compound] | – | reduction | – | – | massive apoptosis | induced apoptosis
